In US7897815B2, “Hexafluoroisopropanol derivatives” (Hoffmann-La Roche Inc., priority 2004, dated 2011):

Legend:
[1] = target: T1, human LXR alpha (GST-LXRα-LBD) (Homo sapiens, UniProt Q13133); assay: Radioligand binding assay (SPA), LXR alpha; settings: GST-LXRα-LBD on SPA beads, read-out: LXRalpha Binding IC50
T1 construct: human LXR alpha (aa 164 to 447); made in house; host or cells: E. coli BL21 (pLysS)
T1 sequence (Q13133 164-447): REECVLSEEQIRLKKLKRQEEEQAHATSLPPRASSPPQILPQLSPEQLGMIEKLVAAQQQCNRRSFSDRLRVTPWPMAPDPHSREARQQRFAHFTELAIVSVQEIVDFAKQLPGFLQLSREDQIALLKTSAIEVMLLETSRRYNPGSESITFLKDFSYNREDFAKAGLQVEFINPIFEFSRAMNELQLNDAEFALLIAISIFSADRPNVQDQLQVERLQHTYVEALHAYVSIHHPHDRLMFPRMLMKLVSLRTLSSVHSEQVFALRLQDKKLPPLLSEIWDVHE
Method: The following tests were carried out in order to determine the activity of the compounds of the present invention. Background information on the performed assays can be found in: Nichols J S et al. “Development of a scintillation proximity assay for peroxisome proliferator-activated receptor gamma ligand binding domain”, Anal Biochem. 1998, 257: 112-119.
Mammalian expression vectors were constructed to express full-length human LXR alpha and LXR beta. Bacterial expression vectors were constructed to produce glutathione-s-transferase (GST) fused to the ligand binding domains (LBD) of human LXR alpha (aa 164 to 447) and human LXR beta (aa 155 to 460). To accomplish this, the portions of the sequences encoding the LBDs were amplified from full-length clones by PCR and then subcloned into the plasmid vectors. Final clones were verified by DNA sequence analysis (Willy et al., Genes Dev. 1995, 9:1033-45; Song et al., Proc Natl Acad Sci USA. 1994, 91:10809-13).
Induction, expression, and purification of GST-LBD fusion proteins were performed in E. coli strain BL21 (pLysS) cells by standard methods (Ref: Current Protocols in Molecular Biology, Wiley Press, edited by Ausubel et al).
LXR alpha and LXR beta receptor binding were assayed in buffer consisting of 50 mM HEPES, pH 7.4, 10 mM NaCl, 5 mM MgCl2. For each 96-well reaction, 500 ng of GST-LXRα-LBD or 700 ng of GST-LXR beta-LBD fusion proteins were bound to 80 μg or 40 μg SPA beads (Pharmacia Amersham) respectively, in a final volume of 50 μl by shaking. The resulting slurry was incubated for 1 h at RT and centrifuged for 2 min at 1300×g. The supernatant containing unbound protein was removed, and the semi-dry pellet containing the receptor-coated beads was re-suspended in 50 μl of buffer. […] All binding assays were performed in 96-well plates and the amount of bound ligand was measured on a Packard TopCount using OptiPlates (Packard). Dose response curves were measured within a range of concentration from 10^−10 M to 10^−4 M.

[2] = target: T2, human LXR beta (GST-LXR beta-LBD) (Homo sapiens, UniProt P55055); assay: Radioligand binding assay (SPA), LXR beta; settings: GST-LXR beta-LBD on SPA beads, read-out: LXRbeta Binding IC50
T2 construct: human LXR beta (aa 155 to 460); made in house; host or cells: E. coli BL21 (pLysS)
T2 sequence (P55055 155-460): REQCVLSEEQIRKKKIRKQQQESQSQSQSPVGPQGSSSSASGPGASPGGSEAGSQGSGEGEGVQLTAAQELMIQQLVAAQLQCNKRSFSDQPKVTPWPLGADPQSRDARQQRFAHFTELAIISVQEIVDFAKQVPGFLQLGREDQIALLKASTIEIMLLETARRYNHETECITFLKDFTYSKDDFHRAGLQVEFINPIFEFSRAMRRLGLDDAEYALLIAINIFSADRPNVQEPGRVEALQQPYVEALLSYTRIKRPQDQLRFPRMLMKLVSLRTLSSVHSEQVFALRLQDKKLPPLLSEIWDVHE
Method: The following tests were carried out in order to determine the activity of the compounds of the present invention.
Mammalian expression vectors were constructed to express full-length human LXR alpha and LXR beta. […] To accomplish this, the portions of the sequences encoding the LBDs were amplified from full-length clones by PCR and then subcloned into the plasmid vectors.
LXR alpha and LXR beta receptor binding were assayed in buffer consisting of 50 mM HEPES, pH 7.4, 10 mM NaCl, 5 mM MgCl2. […] The resulting slurry was incubated for 1 h at RT and centrifuged for 2 min at 1300×g. The supernatant containing unbound protein was removed, and the semi-dry pellet containing the receptor-coated beads was re-suspended in 50 μl of buffer. Radioligand (eg. 100,000 dpm of (N-(2,2,2-trifluoroethyl)-N-[4-(2,2,2-trifluoro-1-hydroxy-1-trifluoromethylethyl)-phenyl]-benzenesulfonamide)) was added, and the reaction incubated at RT for 1 h in the presence of test compounds, and then scintillation proximity counting was performed. All binding assays were performed in 96-well plates and the amount of bound ligand was measured on a Packard TopCount using OptiPlates (Packard). Dose response curves were measured within a range of concentration from 10^−10 M to 10^−4 M.

CCN(Cc1ccccc1)c1ccc(C(O)(C(F)(F)F)C(F)(F)F)cc1 [Example 1, 2-[4-(benzyl-ethyl-amino)-phenyl]-1,1,1,3,3,3-hexafluoro-propan-2-ol]
IC50 [1]: 46 nM

CCN(Cc1cscn1)c1ccc(C(O)(C(F)(F)F)C(F)(F)F)cc1Cl [Example 18, 2-{3-chloro-4-[ethyl-(thiazol-4-ylmethyl)-amino]-phenyl}-1,1,1,3,3,3-hexafluoro-propan-2-ol]
IC50 [1]: 17 nM

CCN(Cc1nc(-c2cccc(C(=O)OC)c2)oc1C)c1ccc(C(O)(C(F)(F)F)C(F)(F)F)cc1 [Example 30, 3-[4-({ethyl-[4-(2,2,2-trifluoro-1-hydroxy-1-trifluoromethyl-ethyl)-phenyl]-amino}-methyl)-5-methyl-oxazol-2-yl]-benzoic acid methyl ester]
IC50 [2]: 5.7 nM
IC50 [1]: 2.7 nM
